Assay results as given in paper PMC10882622, “Cytosolic Delivery of Bioactive Cyclic Peptide Cargo by Spontaneous Membrane Translocating Peptides” (ACS Omega, 2024).
“And” between values parts separate entries of the source, which are not always exact repeats. Identical values can stand only once. Numbered stars: 1 amine (or outer) side, 2 acyl side, 3 side chain; on linkers, the order of the positions; unused ones are H or OH. Bridge positions count the residues as written; N and C are the ends. Square brackets hold non-standard residues; d marks the D form. Peptide text beside a SMILES is read from it. I, II: the chains in the order shown. Trp(2-yl) = O=C([C@H](Cc1c([*:3])[nH]c2ccccc12)N[*:1])[*:2]; X1 = O=C1CC([*:1])C(=O)N1CC1CCC(C(=O)[*:2])CC1; Leu(4R-OH,5-OH) = C[C@](O)(CO)C[C@H](N)C(=O)O; cisHyp = O=C(O)[C@@H]1C[C@H](O)CN1

Tests used:
HeLa cells = assay: cytotoxicity, cell viability by Alamar Blue; format: cell-based, human; details: Alamar Blue fluorescence after 72 h
Description: Validated HeLa human […] cancer cells and HT1080 human epithelial fibrosarcoma cells were obtained from ATCC and were used at a low passage number without modification. All cells were maintained in T75 flasks in an incubator at 37 °C, 5% CO2 in complete media: DMEM containing 10% (%v/v) FBS, glucose, sodium pyruvate, L-glutamine, nonessential amino acids, and antibiotics. Serum-free media (SFM) was prepared in the same fashion as complete media but lacked FBS. Cells were maintained daily with two DPBS washes and replacement of complete media. When ≥90% confluent, cells were passaged using trypsin and seeded into another T75 flask and/or 96-well plates.
(§1) Figure 3 Control experiments. (A) Example in vitro actin depolymerization assay. Depolymerization of pyrene-labeled actin from Cytoskeleton, Inc. was initiated at time zero in the presence of 0–50 μM TP2-S-Ph conjugate. Pyrene excimer fluorescence was excited at 390 nm and monitored at 460 nm over 1 h. (B) Initial depolymerization rates from experiments such as the one shown in Panel A were measured by linear regression and averaged. We show depolymerization rates versus concentration for phalloidin and for the D-TP2-S-Ph conjugate. EC50 values are ∼3 μM for phalloidin and ∼6 μM for D-TP2-S-Ph. (C) Cytotoxicity and hemolysis caused by TP2, phalloidin, and the TP2-S-Ph chimera. Left axis: HeLa cells were incubated with the indicated concentration of compound for 4 h, and cell viability was measured by Alamar Blue fluorescence after 72 h. Right axis: washed human red blood cells were incubated for 1 h, and hemoglobin release was measured.
(§2) To further test for indirect cytotoxicity, we incubated HeLa cells with TP2-S-Ph, TP2 alone, and free phalloidin for 72 h, Figure 3C, and measured cell viability using Alamar Blue.

HT1080 cells = assay: wound-healing scratch (cell migration) assay; format: cell-based, human; parameters: cell migration: dose or concentration left out as unconfirmed
Description: A total of 30,000 HT1080 cells were seeded into each well of a 96-well plate in complete media and incubated for 24 h. Cells were washed with DPBS and incubated in serum-free media (SFM) for the next 48 h. Treatment with TP1/2/3-S-Ph, cytochalasin D, or media control, containing DMSO equal to treatment (% v/v), was done for four h at 37 °C. Cells were washed three times with DPBS and then scratched with 10 μL pipet tips on a multichannel pipettor. Evaluation of area closure was performed by phase contrast microscopic imaging of each well at 4× magnification, hourly, for 24 h with the Biotek Cytation 5 cell imaging reader and the BioSpa 8 automated incubator. Only the linear portion of the time course, up to 8 h, was used for analysis. For each condition studied, the scratch assay was performed in at least 6 biologically independent experiments, and each experiment consisted of 2–3 technical replicates.
ImageJ was used to trace the perimeter of each scratch. The gap area (GA) of each scratch was generated with ImageJ via batch processing with a lower threshold of 0 and an upper threshold of 60. The gap area for treatment groups was averaged and relativized as follows: [drawing 1]
Mean relative GA was plotted over time, and the absolute value of the slope from 1 to 8 h for each treatment was determined. Lastly, slopes were normalized against SFM controls.
We performed 4 h incubation in the presence of peptide chimeras and then washed the cells with PBS three times prior to conducting the scratch-closing measurements. This approach enabled us to assay only for rapid and nonreversible delivery of phalloidin cargo to the cytosol of cells by the peptides. The control compound cytochalasin D needed to be maintained at the noted concentration throughout the entire incubation time because, unlike the peptides, it is readily washed out of cells and has no effect if incubated for 4 h and washed away.
Figure 4 Example scratch assay. For this assay, a total of 30,000 HT1080 cells were seeded into each well of a 96-well cell culture plate in complete media and incubated for 24 h. Cells were washed with DPBS and incubated in serum-free media (SFM) for the next 48 h. Treatment with serum-free media, cytochalasin D, or peptide was done for 4 h at 37 °C. Cells were washed three times with DPBS and then scratched with 10 μL pipet tips on a multichannel pipettor. Cytochalasin D was replaced at the intended concentration, but the peptide was not. Evaluation of wound area was performed by phase contrast microscopic imaging of each well at 4× magnification with a BioTek Cytation 5 cell imaging reader and the BioSpa 8 automated incubator. Here, we show example images from a typical scratch assay taken 0, 1, 3, and 6 h after scratching a channel in the middle of the surface. Red lines show the edge of the wound identified by ImageJ and were used to calculate the total wound area from each image.
Migration rates were normalized to that of the NT/SFM group, which was always the fastest closing group. Each experiment was repeated in at least 6 biologically independent experiments, and each biologically independent experiment was repeated in 2–3 technical replicates.

pyrene-labeled actin = molecular target: T1, pyrene-labeled actin (Oryctolagus cuniculus, UniProt P68135); assay: in vitro actin depolymerization assay (pyrene excimer fluorescence, Cytoskeleton kit); format: biochemical; details: polymerized pyrene-actin, 0–50 μM, rates by linear regression, normalized to buffer-only control, averaged; read-out: EC50 for inhibition of actin depolymerization (initial depolymerization rate vs concentration)
T1 construct: purchased Cytoskeleton, Inc
Description: An actin polymerization biochemistry kit (Cytoskeleton, Inc.) was used to assay the bioactivity of the phalloidin conjugates. All experiments were performed in a 96-well format and read on a fluorescent plate reader (Biotek Synergy II). Actin-pyrene monomers formed filamentous actin by using the supplied polymerization buffer, which caused pyrene excimer fluorescence (excitation 365 nm and emission 407 nm). Serial dilutions of phalloidin or TP2-SMCC-Ph were added to the filamentous actin-pyrene as well as a no peptide control. A supplied depolymerization buffer was then added to samples, and loss of fluorescence was monitored on the plate reader as a function of time. […] Calculated rates are normalized to the buffer-only controls.
The 7-position of natural phalloidin is a 4,5-dihydroxy leucine residue. […] Pyrene excimer fluorescence is measured such that depolymerization will drive a decrease in intensity. Polymerized actin, with added phalloidin or TP2-SMCC-Ph, is triggered to depolymerize at time zero, and the rate of excimer decrease is measured.
Figure 3 Control experiments. […] Pyrene excimer fluorescence was excited at 390 nm and monitored at 460 nm over 1 h. (B) Initial depolymerization rates from experiments such as the one shown in Panel A were measured by linear regression and averaged. […] Right axis: washed human red blood cells were incubated for 1 h, and hemoglobin release was measured.

human red blood cells = assay: hemolysis, hemoglobin release; format: cell-based; details: washed human red blood cells, incubated 1 h
Description: as §1, §2

[1] = 100 nM continuous, HT1080, serum-free media

| SMILES | toxicity to HeLa cells (cell viability) (HeLa cells; 0–25 μM concentration range) | toxicity to HeLa cells (cell viability) (HeLa cells; at 50 μM) | size of effect on cell migration compared with cytochalasin D control (HT1080 cells; 25 μM, applied for 4 h then washed off, control 100 nM continuous CD) | effect on migration (mean wound closure rate) compared to no treatment, one-way ANOVA (HT1080 cells; at 25, 12.5, 6.3, and 3.1 μM, 4 h incubation then washed, slope 1–8 h, at least 6 independent experiments) | EC50 (pyrene-labeled actin) | hemolysis of red blood cells (human red blood cells) | cytotoxic effects on HeLa cells (cell viability) (HeLa cells; up to 1 mM) | cell migration over the first 6 h (HT1080 cells; [1]) | inhibition of cell movement (HT1080 cells; [1]) | effect on cell migration after wash-out (HT1080 cells; incubated for 4 h and washed away) | cell migration (HT1080 cells; treatment, continuous, HT1080) |
| --- | --- | --- | --- | --- | --- | --- | --- | --- | --- | --- | --- |
| CC[C@@H](C)[C@@H](NC(=O)[C@@H](CC(C)C)NC(=O)[C@H]1CCCN1)C(=O)N[C@H](Cc1ccc(O)cc1)C(=O)N[C@H](CC(C)C)C(=O)N[C@H](CCCNC(=N)N)C(=O)N[C@H](CC(C)C)C(=O)N[C@H](CC(C)C)C(=O)N[C@H](CCCNC(=N)N)C(=O)NCC(=O)N[C@H](CCC(N)=O)C(=O)N[C@H](Cc1c[nH]c2ccccc12)C(=O)N[C@H](CSC1CC(=O)N(CC2CCC(C(=O)NCCCC[C@@H]3NC(=O)[C@@H]4Cc5c([nH]c6ccccc56)SC[C@H](NC(=O)[C@@H]([C@H](C)O)NC(=O)[C@H](C)NC3=O)C(=O)N3C[C@@H](O)C[C@H]3C(=O)N[C@@H](C)C(=O)N4)CC2)C1=O)C(N)=O (stereo partly drawn) [TP2-S-Ph] (I: H-[dP][dL][dI][dY][dL][dR][dL][dL][dR]G[dQ][dW][dC]-NH2 / II: cyclo([cisHyp]A[Trp(2-yl)]KA[dT]C); linker I:13-II:4 via X1; thioether II:3-II:7) | Neither the conjugated TP2 nor TP2 alone showed any toxicity | the conjugate did not | at least as large as the CD control | significant effects | < 5 µM and ~6 µM | no hemolytic activity |  |  |  |  |  |
| C[C@@H]1NC(=O)[C@H](C[C@@](C)(O)CO)NC(=O)[C@@H]2Cc3c([nH]c4ccccc34)SC[C@H](NC(=O)[C@@H]([C@H](C)O)NC1=O)C(=O)N1C[C@@H](O)C[C@H]1C(=O)N[C@@H](C)C(=O)N2 [phalloidin] (cyclo(A[dT]C[cisHyp]A[Trp(2-yl)][Leu(4R-OH,5-OH)]); thioether 3-6 (inferred); ring closure inferred) |  |  |  |  | < 5 µM and ~3 µM |  | no cytotoxic effects |  |  |  |  |
| C=C1[C@@H](C)[C@H]2[C@H](Cc3ccccc3)NC(=O)[C@]23[C@H](OC(C)=O)/C=C/[C@@](C)(O)C(=O)[C@@H](C)C/C=C/[C@H]3[C@@H]1O [cytochalasin D] |  |  |  |  |  |  |  | little to no migration | inhibited cell movement completely | no effect | some migration |
